Reference: article PMC6934184, “Selective DNA-PKcs inhibition extends the therapeutic index of localized radiotherapy and chemotherapy” (The Journal of Clinical Investigation, 2019)

Target: T1, ZAK (Homo sapiens, UniProt Q9NYL2)
T1 construct: purchased Thermo Fisher Scientific (Life Technologies) SelectScreen
Test: SelectScreen LanthaScreen
Assay type: binding
Details: read-out: % displacement
Outline: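 Percent values come from Thermo SelectScreen profiling of NU5455, combining activity and binding assays. CSF1R was run in Z'LYTE format at Km app ATP, and CAMK1 in Adapta format with ATP listed at 10.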

T1 sequence (Q9NYL2 whole entry): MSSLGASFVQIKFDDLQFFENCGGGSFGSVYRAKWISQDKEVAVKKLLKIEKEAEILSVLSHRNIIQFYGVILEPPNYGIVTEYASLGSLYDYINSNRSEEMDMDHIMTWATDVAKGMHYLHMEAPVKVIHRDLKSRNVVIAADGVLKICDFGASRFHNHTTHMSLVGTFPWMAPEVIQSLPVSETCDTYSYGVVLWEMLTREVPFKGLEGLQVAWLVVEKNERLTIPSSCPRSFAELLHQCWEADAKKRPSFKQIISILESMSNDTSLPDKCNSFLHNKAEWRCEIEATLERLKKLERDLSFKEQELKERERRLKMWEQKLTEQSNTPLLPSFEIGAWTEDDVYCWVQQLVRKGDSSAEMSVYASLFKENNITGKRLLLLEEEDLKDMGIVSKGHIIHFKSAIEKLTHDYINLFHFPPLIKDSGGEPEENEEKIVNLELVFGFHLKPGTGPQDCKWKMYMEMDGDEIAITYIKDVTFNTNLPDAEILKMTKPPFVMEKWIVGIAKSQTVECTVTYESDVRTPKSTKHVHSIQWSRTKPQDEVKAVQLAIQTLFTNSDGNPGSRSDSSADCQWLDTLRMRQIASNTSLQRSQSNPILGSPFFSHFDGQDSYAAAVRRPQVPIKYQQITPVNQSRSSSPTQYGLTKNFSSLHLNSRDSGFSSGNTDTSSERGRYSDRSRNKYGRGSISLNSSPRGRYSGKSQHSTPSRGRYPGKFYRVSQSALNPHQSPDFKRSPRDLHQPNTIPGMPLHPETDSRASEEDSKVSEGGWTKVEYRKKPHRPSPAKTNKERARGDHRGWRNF

## CN(C(=O)CN1CCOCC1)c1ccc2sc3c(-c4cccc5c(=O)cc(N6CC7CCC(C6)O7)oc45)cccc3c2c1 [NU5455]
  inhibition at 1 µM: -0.7%
